Experimental data: patent US20030055070A1, “Phosphodiesterase type 5 (PDE5) inhibitors for the treatment of selective serotonin reuptake inhibitor (SSR) induced sexual dysfunction” (priority 1999, published 2003)

Tests used:
men with ED = assay: Retrospective subanalysis of 10 double-blind, placebo-controlled sildenafil citrate studies, IIEF questionnaire; patients without SSRIs; format: in vivo, human
Experimental: (§1) A retrospective analysis of combined data from 10 Phase II/III double-blind, placebo-controlled, fixed- and flexible-dose trials identified a subgroup of men with ED who were receiving 5-200 mg of sildenafil citrate (S) or placebo (P) and taking concomitant SSRIs. Studies of sildenafil citrate in various populations have been reported. For example, Goldstein et al. report the results of two sildenafil citrate studies in men. In one study 532 men were treated with oral sildenafil citrate (25, 50 or 100 mg) or placebo over 24 weeks to study dose-response. In the second study 329 men were treated with sildenafil citrate or placebo with dose escalation to 100 mg based on efficacy and tolerance. Additional studies may be found in the following references: Derry et al. (1998), Dinsmore et al. (1999), Goldstein et al. (1998), Padma-Nathan et al. (1998) and Rendell et al. (1999). Analysis of efficacy (ANCOVA) included responses to several questions including question 9 (Q9; frequency of ejaculation) and question 10 (Q10; frequency of orgasm) of the International Index of Erectile Function. In the International Index of Erectile Function, sexual activity includes intercourse, caressing, foreplay and masturbation; sexual intercourse is defined as vaginal penetration of a partner by the respondent; sexual stimulation includes situations like foreplay with a partner, looking at erotic pictures, etc.; ejaculation: the ejection of semen from the penis (or the feeling of this). Question 9 is, “Over the past 4 weeks, when you had sexual stimulation or intercourse how often did you ejaculate?” Question 10 is, “Over the past 4 weeks, when you had sexual stimulation or intercourse how often did you have the feeling of orgasm (with or without ejaculation)? Scores are based on a scale from 1 (almost never or never) to 5 (almost always or always), with 0 representing “No sexual stimulation/intercourse.” Each question was scored from 0 to 5, with lower scores indicating greater sexual dysfunction. Results are expressed as mean baseline score's standard error of mean, (±SEM) and mean change from baseline (±SEM) at the end of treatment (6 to 24 weeks).
(§2) This was a retrospective subanalysis of combined data from 10 double-blind, placebo-controlled, fixed- and flexible-dose studies with sildenafil citrate for the treatment of ED. The subanalysis was conducted to assess whether treatment with sildenafil citrate can alleviate symptoms of sexual dysfunction in men taking SSRIs. The studies lasted for 6 to 24 weeks and dosing of the study drug ranged from 5 mg to 200 mg of sildenafil citrate or matching placebo. Patients were instructed to take medication approximately 1 hour before anticipated sexual activity but not more than once daily.
(§3) A total of 3414 patients were randomized to treatment. The main inclusion criteria were as follows: Men aged 18 years and older; Clinical diagnosis of ED of more than 6 months' duration; Stable relationship with a female partner for at least 6 months prior to the study; and written informed consent. The main exclusion criteria were as follows: Penile anatomical deformities; Major illness or uncontrolled psychiatric disorder; Concomitant treatment with nitrates or nitric oxide donors, estrogens, androgens, or anticoagulants. Other treatments for sexual dysfunction were not allowed during the study.
Efficacy was assessed at the end of treatment (6 to 24 weeks) by responses to the validated 15-item International Index of Erectile Function (IIEF) questionnaire. Rosen et al. (1997) “The International Index of Erectile Function (IIEF): a Multidimensional Scale for Assessment of Erectile Dysfunction,” Urology 49:822-830. Responses were graded on a scale of 1 (“almost never/never”) to 5 (“almost always/always”), with a score of 0 indicating no sexual activity. Efficacy results were evaluated using analysis of covariance (ANCOVA) and were expressed as mean scores.

[1] = test system: men with ED taking concomitant SSRIs; assay: Retrospective subanalysis of 10 double-blind, placebo-controlled sildenafil citrate studies, IIEF questionnaire; patients taking concomitant SSRIs; format: in vivo, human
Experimental: as §1, §2, §3
Efficacy was assessed at the end of treatment (6 to 24 weeks) by responses to the validated 15-item International Index of Erectile Function (IIEF) questionnaire. Rosen et al. (1997) “The International Index of Erectile Function (IIEF): a Multidimensional Scale for Assessment of Erectile Dysfunction,” Urology 49:822-830. Responses were graded on a scale of 1 (“almost never/never”) to 5 (“almost always/always”), with a score of 0 indicating no sexual activity. Efficacy results were evaluated using analysis of covariance (ANCOVA) and were expressed as mean scores. […]

[2] = test system: SSRI induced sexual dysfunction in men and women; conditions: nine men, five women; twelve on SSRIs, two on mirtazapine; all patients; cited from earlier work
[3] = test system: SSRI induced sexual dysfunction; conditions: four patients (two men, two women); all reported; cited from earlier work
[4] = test system: SSRI-induced sexual side effects; conditions: case studies of patients taking SSRIs; cited from earlier work
[5] = no SSRI, end of treatment (6 to 24 weeks), 5-200 mg, scale 0-5
[6] = no SSRI, p<0.0001 versus placebo
[7] = without SSRIs, 5-200 mg, end of treatment (6 to 24 weeks), scale 0-5
[8] = without SSRIs, baseline, scale 0-5
[9] = with SSRIs, 5-200 mg, end of treatment (6 to 24 weeks), scale 0-5
[10] = with SSRIs, baseline, scale 0-5

For `CCCc1nn(C)c2c(=O)[nH]c(-c3cc(S(=O)(=O)N4CCN(C)CC4)ccc3OCC)nc12.O=C(O)CC(O)(CC(=O)O)C(=O)O` [Sildenafil citrate, 1-[[3-(6,7-dihydro-1-methyl-7-oxo-3-propyl-1H-pyrazolo[4,3-d]pyrimidin-5-yl)-4-ethoxyphenyl]sulfonyl]-4-methylpiperazine citrate], the “Improvement of score, erection confidence (Question 15)” value (men with ED; no SSRI, baseline to endpoint) was 76%, the “Improvement of score, erection firmness (Question 2)” value (men with ED; no SSRI, baseline to endpoint) was 78% and the “Improvement of score, erection frequency (Question 1)” value (men with ED; no SSRI, baseline to endpoint) was 60%. For the same molecule, the “Improvement of score, maintenance ability (Question 5)” value (men with ED; no SSRI, baseline to endpoint) was 117%, the “Increase of mean score, intercourse enjoyment (Question 8)” value (men with ED; no SSRI, baseline to endpoint) was 70% and the “Increase of mean score, intercourse frequency (Question 6)” value (men with ED; no SSRI, baseline to endpoint) was 57%. For the same molecule, the “Increase of mean score, intercourse satisfaction (Question 7)” value (men with ED; no SSRI, baseline to endpoint) was 93%, the “Increase of mean score, overall satisfaction with sex life (Question 13)” value (men with ED; no SSRI, baseline to endpoint) was 68% and the “Increase of mean score, satisfaction with the relationship (Question 14)” value (men with ED; no SSRI, baseline to endpoint) was 40%. The “IIEF Question 1 erection frequency, baseline mean score” value (men with ED; no SSRI, baseline, scale 0-5) was 2.27 ± 0.04, the “IIEF Question 2 erection firmness, baseline mean score” value (men with ED; no SSRI, baseline, scale 0-5) was 1.97 ± 0.03 and the “IIEF Question 5 maintenance ability, baseline mean score” value (men with ED; no SSRI, baseline, scale 0-5) was 1.54 ± 0.03. The “IIEF Question 6 intercourse frequency, baseline mean score” value (men with ED; no SSRI, baseline, scale 0-5) was 2.00 ± 0.03, the “IIEF Question 7 intercourse satisfaction, baseline mean score” value (men with ED; no SSRI, baseline, scale 0-5) was 1.75 ± 0.03 and the “IIEF Question 8 intercourse enjoyment, baseline mean score” value (men with ED; no SSRI, baseline, scale 0-5) was 1.86 ± 0.03. The “IIEF Question 13 overall satisfaction, baseline mean score” value (men with ED; no SSRI, baseline, scale 0-5) was 2.00 ± 0.02, the “IIEF Question 14 relationship satisfaction, baseline mean score” value (men with ED; no SSRI, baseline, scale 0-5) was 2.63 ± 0.03 and the “IIEF Question 15 erection confidence, baseline mean score” value (men with ED; no SSRI, baseline, scale 0-5) was 1.76 ± 0.02. For the same molecule, the “Increase of mean score from mean baseline score, ability to achieve an erection (Question 3)” value (men with ED; no SSRI, end of treatment) was 80%, the “Increase of mean score from mean baseline score, ability to maintain an erection (Question 4)” value (men with ED; no SSRI, end of treatment) was 107% and the “IIEF Question 1 erection frequency, endpoint mean score” value (men with ED; [5]) was 3.63 ± 0.04. For the same molecule, the “IIEF Question 2 erection firmness, endpoint mean score” value (men with ED; [5]) was 3.50 ± 0.04, the “IIEF Question 5 maintenance ability, endpoint mean score” value (men with ED; [5]) was 3.35 ± 0.04 and the “IIEF Question 6 intercourse frequency, endpoint mean score” value (men with ED; [5]) was 3.13 ± 0.03. For the same molecule, the “IIEF Question 7 intercourse satisfaction, endpoint mean score” value (men with ED; [5]) was 3.38 ± 0.04, the “IIEF Question 8 intercourse enjoyment, endpoint mean score” value (men with ED; [5]) was 3.16 ± 0.03 and the “IIEF Question 13 overall satisfaction, endpoint mean score” value (men with ED; [5]) was 3.36 ± 0.03. For the same molecule, the “IIEF Question 14 relationship satisfaction, endpoint mean score” value (men with ED; [5]) was 3.68 ± 0.03, the “IIEF Question 15 erection confidence, endpoint mean score” value (men with ED; [5]) was 3.10 ± 0.03 and the “Frequency of ejaculation (Question 9), mean score versus placebo, in words” value (men with ED; [6]) was “increased significantly”. For the same molecule, the “Frequency of orgasm (Question 10), mean score versus placebo, in words” value (men with ED; [6]) was “increased significantly”, the “Important aspects of sexual function, in words” value (men with ED; patients with ED without concomitant SSRI) was “significantly improved” and the “IIEF Q9 frequency of ejaculation, mean change from baseline ± SEM” value (men with ED; [7]) was 0.90 ± 0.04. For the same molecule, the “IIEF Q10 frequency of orgasm, mean change from baseline ± SEM” value (men with ED; [7]) was 0.93 ± 0.04, the “IIEF Q9 frequency of ejaculation, mean baseline score ± SEM” value (men with ED; [8]) was 2.74 ± 0.04 and the “IIEF Q10 frequency of orgasm, mean baseline score ± SEM” value (men with ED; [8]) was 2.65 ± 0.04. For the same molecule, the “Frequency of orgasm (Question 10), effect versus placebo, in words” value ([1]; concomitant SSRI, p<0.01 versus placebo, citrate) was “significantly improved”, the “Frequency of ejaculation (Question 9), effect versus placebo, in words” value ([1]; concomitant SSRI, p<0.02 versus placebo, citrate) was “significantly improved” and the “Important aspects of sexual function, in words” value ([1]; patients with ED with concomitant SSRI) was “significantly improved”. The “IIEF Q9 frequency of ejaculation, mean change from baseline ± SEM” value [1, 9] was 1.16 ± 0.25, the “IIEF Q10 frequency of orgasm, mean change from baseline ± SEM” value [1, 9] was 1.34 ± 0.27 and the “IIEF Q9 frequency of ejaculation, mean baseline score ± SEM” value [1, 10] was 2.42 ± 0.23. For the same molecule, the “IIEF Q10 frequency of orgasm, mean baseline score ± SEM” value [1, 10] was 2.24 ± 0.22, the “Sexual functioning, in words” value [2] was “statistically significant improvement” and the “Effect on SSRI induced sexual dysfunction, in words” value [3] was “rapid reversal of SSRI induced sexual dysfunction”. For the same molecule, the “Response to treatment, in words” value [4] was “responding well”.
